Test results from patent US12006289B2, “Potassium channel inhibitors” (Saniona A/S, priority 2019, dated 2024).

Tests used:
[1] = target: erythrocyte KCa3.1 channels (Homo sapiens (Human), UniProt O15554); experiment: Erythrocyte KCa3.1 assay; format: cell-based; conditions: human erythrocytes, A23187-activated, 37° C.; read-out: RBC K (in vitro) Human IC50
Experimental: Human blood was drawn from healthy human volunteers in a standard heparinized blood sampling vial (Vacutainer, Li/heparin, BD Bioscience, Plymouth, UK). The erythrocytes were packed by centrifugation, and the plasma and buffy coat were removed by aspiration. Erythrocytes were washed three times in the experimental salt solution and then stored at 0° C. until use. Blood samples from NMRI mice or from Wistar rats were treated similarly. The methodological principle is outlined in Macey et al. (1978) and further described in Strøbæk et al. (2013). Activation of the erythrocyte KCa3.1 channels were obtained by addition of the Ca^2+ ionophore A23187, which causes synchronized hyperpolarization, which is reported as a CCCP-mediated shift in the unbuffered extracellular pH of the erythrocyte suspension. Standard procedure: 3 mL unbuffered experimental salt solution (in mM: 2 KCl, 154 NaCl, 0.05 CaCl2) was heated to 37° C. with stirring. Packed erythrocytes were added (50 μL, final cytocrit 1.5%), and the extracellular pH (pHo) followed with a glass/calomel (pHG200-8/REF200, Radiometer, Denmark) electrode pair. CCCP (3 μL, final concentration 20 μM) was added followed by varying concentrations of test compounds (DMSO concentration constant). After pH stabilization at ˜7.2, A23187 (3 μL, final concentration 0.33 μM) was added to initiate the experiment. After the peak hyperpolarization was attained, the intracellular pH (pHi constant during the experiment) was found by haemolysing the erythrocytes via addition of 100 μL of Triton-X100.
The erythrocyte membrane potential, Vm, was calculated according to: Vm=−61.5 mV×(pHo−pHi) and the fractional remaining Ca^2+-activated K^+-conductance at the concentration C of blocker, fGK(C), was calculated from
[formula] where the K^+ equilibrium potential EK=−107 mV, the Cl^− equilibrium potential ECl=−12 mV and the Vm(0) and Vm(C) are the peak hyperpolarizations in the control and in the presence of a concentration of C of blocker respectively.
IC50 values for compounds were calculated from a plot of fGK(C) versus C by a fit to the Hill equation, using a custom program written in the IGOR-Pro software (WaveMetrics, Lake Oswego, OR, USA). All IC50-values are reported in μM.

[2] = Solubility of compounds in 50 mM phosphate buffer pH 7.4 by HPLC; format: physicochemical
Experimental: Solubility is calculated using the following formula: […]

mouse model of ARDS = conditions: treatment with classical KCa3.1 inhibitors; cited from earlier work
[3] = statement in words; cited from earlier work
[4] = 50 mM potassium phosphate buffer pH 7.40, 16 hr at ~25° C., 1600 μM incubation concentration

Row | IC50 [1] [µM] | Measured Solubility in pH 7.4 phosphate buffer (mg/ml) [2, 4] [mg/ml] | Measured Solubility in pH 7.4 phosphate buffer (μM) (rounded) [2, 4] | SMILES | further results
1 | 0.014 |  |  | CC(C)(N)CN(CC1CC1)C1(c2ccc(F)c(C(F)(F)F)c2)CC1 [[8], N1-(cyclopropylmethyl)-N1-(1-(4-fluoro-3-(trifluoromethyl)phenyl)cyclopropyl)-2-methyl propane-1,2-diamine] | Measured Solubility in pH 7.4 phosphate buffer (μM) (rounded) ([2]; 16 h, pH 7.4): 1500 μM
2 | 0.086 |  |  | COC(=O)N(CC(C)(C)N)C1(c2ccc(F)c(C(F)(F)F)c2)CC1 [[2], Methyl (2-amino-2-methylpropyl)(1-(4-fluoro-3-(trifluoromethyl)phenyl)cyclopropyl)carbamate] | Measured Solubility in pH 7.4 phosphate buffer (μM) (rounded) ([2]; 16 h, pH 7.4): 1600 μM
3 | 0.081 |  |  | COC(=O)N(C[C@H]1CCCN1C)C1(c2ccc(F)c(C(F)(F)F)c2)CC1 [[31], Methyl (R)-(1-(4-fluoro-3-(trifluoromethyl)phenyl)cyclopropyl)((1-methylpyrrolidin-2-yl)methyl)carbamate] | Measured Solubility in pH 7.4 phosphate buffer (μM) (rounded) ([2]; 16 h, pH 7.4): 1500 μM
4 | 0.36 |  |  | COC(=O)N(C[C@@H]1CCN1)C1(c2ccc(F)c(C(F)(F)F)c2)CC1 [[53], Methyl (S)-(azetidin-2-ylmethyl)(1-(4-fluoro-3-(trifluoromethyl)phenyl)-cyclopropyl)carbamate] | Measured Solubility in pH 7.4 phosphate buffer (μM) (rounded) ([2]; 16 h, pH 7.4): 1700 μM
5 | 0.33 | 0.5409 | 1600 | COC(=O)N(CCN(C)C)C1(c2ccc(F)c(C(F)(F)F)c2)CC1 [[1], Methyl N-(2-(dimethylamino)ethyl)-N-(1-(4-fluoro-3-(trifluoromethyl)phenyl)cyclopropyl) carbamate] | 
6 |  |  |  | O=C1CSc2ccccc2N1Cc1cccc(C(F)(F)F)c1 [NS6180, 4-[[3-(Trifluoromethyl)-phenyl]methyl]-2H-1,4-benzothiazin-3(4H)-one, reference compound] | Measured Solubility in pH 7.4 phosphate buffer (mg/ml) ([2]; 16 h, pH 7.4): 0.0009 mg/ml
7 | 0.4 |  |  | CN1CCC1CN(CC(C)(C)O)C1(c2ccc(F)c(C(F)(F)F)c2)CC1 (centres unmarked) [[16], 1-((1-(4-fluoro-3-(trifluoromethyl)phenyl)cyclopropyl)((1-methylazetidin-2-yl)methyl)amino)-2-methylpropan-2-ol] | Measured Solubility in pH 7.4 phosphate buffer (μM) (rounded) ([2]; 16 h, pH 7.4): 1600 μM
8 | 0.4 | 0.5636 | 1500 | COC(=O)N(CC(C)(C)N)C1(c2cc(C(F)(F)F)c(F)cn2)CC1 [[17], Methyl (2-amino-2-methylpropyl)(1-(5-fluoro-4-(trifluoromethyl)pyridin-2-yl)cyclopropyl) carbamate] | 
9 | 0.11 | 0.5679 | 1500 | CCOC(=O)N(C[C@@H]1CCCN1C)C1(c2ccc(F)c(C(F)(F)F)c2)CC1 [[35], Ethyl (S)-(1-(4-fluoro-3-(trifluoromethyl)phenyl)cyclopropyl)((1-methylpyrrolidin-2-yl)methyl) carbamate] | 
10 | 0.3 | 0.5918 | 1600 | COC(=O)N(C[C@@H]1CCCN1C)C1(c2ccc(F)c(C(F)(F)F)c2)CC1 [[27], Methyl (S)-(1-(4-fluoro-3-(trifluoromethyl)phenyl)cyclopropyl) ((1-methylpyrrolidin-2-yl)methyl) carbamate] | 
11 |  |  |  | NC(=O)C(c1ccccc1)(c1ccc(F)cc1)c1ccc(F)cc1 [senicapoc] | Gas exchange in mouse model of ARDS (mouse model of ARDS): improved gas exchange; Water solubility [3]: extremely low water solubility
12 | 0.32 | 0.3218 | 800 | CS(=O)(=O)N(C[C@@H]1CCCN1)C1(c2ccc(F)c(C(F)(F)F)c2)CC1 [[36], (S)—N-(1-(4-fluoro-3-(trifluoromethyl)phenyl)cyclopropyl)-N-(pyrrolidin-2-ylmethyl) methanesulfonamide] | 
13 |  |  |  | Clc1ccccc1C(c1ccccc1)(c1ccccc1)n1cccn1 [TRAM-34] | Gas exchange in mouse model of ARDS (mouse model of ARDS): improved gas exchange; Water solubility [3]: extremely low water solubility
14 | 0.34 | 0.6118 | 1500 | COC(=O)N(C[C@H]1COCCN1)C1(c2ccc(F)c(C(F)(F)F)c2)CC1 [[42], Methyl (S)-(1-(4-fluoro-3-(trifluoromethyl)phenyl)cyclopropyl)(morpholin-3-ylmethyl) carbamate] | 
15 | 0.16 | 0.5599 | 1600 | COC(=O)N(CC1(N)CC1)C1(c2ccc(F)c(C(F)(F)F)c2)CC1 [[3], Methyl ((1-aminocyclopropyl)methyl)(1-(4-fluoro-3-(trifluoromethyl)phenyl)cyclopropyl) carbamate] | 
16 | 0.3 |  |  | COC(=O)N(CC(C)(C)N)C1(c2cc(Cl)cc(Cl)c2)CC1 [[11], Methyl (2-amino-2-methylpropyl)(1-(3,5-dichlorophenyl)cyclopropyl)carbamate] | 
17 | 0.48 |  |  | COC(=O)N(CCN)C1(c2ccc(F)c(C(F)(F)F)c2)CC1 [[7], Methyl (2-aminoethyl)(1-(4-fluoro-3-(trifluoromethyl)phenyl)cyclopropyl)carbamate] | 
18 | 0.14 |  |  | COC(=O)N(CC(C)(C)N)C1(c2cccc(C(F)(F)F)c2)CC1 [[15], Methyl (2-amino-2-methylpropyl)(1-(3-(trifluoromethyl)phenyl)cyclopropyl)carbamate] | 
19 | 0.27 |  |  | COC(=O)N(CC1CCN1)C1(c2ccc(F)c(OC(F)(F)F)c2)CC1 (centres unmarked) [[32], Methyl (azetidin-2-ylmethyl)(1-(4-fluoro-3-(trifluoromethoxy)phenyl)cyclopropyl)carbamate] | 
20 | 0.2 |  |  | CC(C)OC(=O)N(C[C@@H]1CCCN1)C1(c2ccc(F)c(C(F)(F)F)c2)CC1 [[44], Isopropyl (S)-(1-(4-fluoro-3-(trifluoromethyl)phenyl)cyclopropyl)(pyrrolidin-2-ylmethyl)carbamate] | Measured Solubility in pH 7.4 phosphate buffer (μM) (rounded) ([2]; 16 h, pH 7.4): 1600 μM
21 | 0.29 |  |  | COC(=O)N(C[C@H]1COCCN1C)C1(c2ccc(F)c(C(F)(F)F)c2)CC1 [[43], Methyl (S)-(1-(4-fluoro-3-(trifluoromethyl)phenyl)cyclopropyl)((4-methylmorpholin-3-yl)methyl)carbamate] | 
22 | 0.024 |  |  | CC(C)(N)CN(C1CC1)C1(c2cccc(C(F)(F)F)c2)CC1 [[10], N1-cyclopropyl-2-methyl-N1-(1-(3-(trifluoromethyl)phenyl)cyclopropyl)propane-1,2-diamine] | 
